This note sets out measurements from patent publication US20040248844A1, “Method for the treatment or prevention of Flavivirus infections using nucleoside analogues” (priority 2000, published 2004).

The target in the assay is T1, HCV RNA-dependent RNA polymerase (NS5B protein) (Hepatitis C virus genotype 1b, UniProt P26663).
T1 construct: The cDNA encoding the entire NS5B protein of HCV-Bk strain, genotype 1b; initiator Met (ATG added before the NS5B coding region) (N); made in house; host or cells: Sf9 insect cells, recombinant baculovirus (pBlueBacII, BacNS5B)
T1 sequence (P26663 2420-3010): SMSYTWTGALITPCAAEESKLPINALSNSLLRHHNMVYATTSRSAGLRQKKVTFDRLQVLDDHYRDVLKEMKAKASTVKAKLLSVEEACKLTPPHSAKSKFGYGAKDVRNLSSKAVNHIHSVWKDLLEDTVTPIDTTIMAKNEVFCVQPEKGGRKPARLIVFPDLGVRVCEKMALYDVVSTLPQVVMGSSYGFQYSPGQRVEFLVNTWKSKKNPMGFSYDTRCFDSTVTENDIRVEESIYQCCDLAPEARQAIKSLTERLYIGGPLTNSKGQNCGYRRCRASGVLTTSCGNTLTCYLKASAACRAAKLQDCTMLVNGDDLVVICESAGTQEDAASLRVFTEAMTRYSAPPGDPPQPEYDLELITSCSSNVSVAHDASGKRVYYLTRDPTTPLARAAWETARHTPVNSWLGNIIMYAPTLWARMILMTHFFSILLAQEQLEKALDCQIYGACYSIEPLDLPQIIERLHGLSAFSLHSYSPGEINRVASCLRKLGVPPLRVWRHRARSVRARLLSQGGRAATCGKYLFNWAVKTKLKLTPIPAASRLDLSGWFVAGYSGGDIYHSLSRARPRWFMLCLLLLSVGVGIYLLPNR
The experiment in a line: HCV RNA-dependent RNA polymerase assay (in vitro RdRp assay, heteropolymeric RNA template). The format is biochemical, HCV-Bk strain. The following applies: for IC50: purified recombinant NS5B 200 ng, competing NTP at twice Km, other NTPs 100 μM, 2 h at 22° C., triphosphate form tested; for measured Kms for the four substrates: natural NTP substrates of purified NS5B in the RdRp assay. How it is done: Compounds were evaluated using an in vitro polymerase assay containing purified recombinant HCV RNA-dependent RNA polymerase (NS5B protein). HCV NS5B was expressed in insect cells using a recombinant baculovirus as vector. The experimental procedures used for the cloning, expression and purification of the HCV NS5B protein are described below. Following are details of the RNA-dependent RNA polymerase assays used to test the compounds.
The cDNA encoding the entire NS5B protein of HCV-Bk strain, genotype 1b, was amplified by PCR using a plasmid containing a cDNA version of the full-length HCV genome as template. The oligonucleotides used to amplify this HCV region were designed to introduce a NheI site followed by an ATG at the 5′ end of the NS5B coding region as well as a BamHI site at the 3′end immediately downstream of the translation stop codon. The amplified sequence, of 1.8 kb, was digested with NheI and BamHI and ligated to a predigested pBlueBacII plasmid (Invitrogen). The resulting recombinant plasmid was designated pBac/NS5B. Sf9 cells were co-transfected with 3 μg of pBac/NS5B, together with 1 μg of linearized baculovirus DNA (Invitrogen), as described in the manufacturer's protocol. Following two rounds of plaque purification, an NS5B-recombinant baculovirus, BacNS5B, was isolated. The presence of the recombinant NS5B protein was determined by western blot analysis (Harlow and Lane, 1988) of BacNS5B-infected Sf9 cells, using a HCV NS5B specific rabbit polyclonal antiserum (anti-NS5B). Infections of Sf9 cells with this plaque purified virus were performed in one-liter spinner flasks at a cell density of 1.2×10^6 cells/ml and a multiplicity of infection of 5.
Sf9 cells were infected as described above. Sixty hours post-infection, cells were harvested then washed twice with phosphate buffer saline (PBS). Total proteins were solubilized as described in Lohmann et al. […] with some modifications. In brief, proteins were extracted in three steps, S1, S2, S3, using lysis buffers (LB) I, LB II and LB III (Lohmann et al, 1997). The composition of LBII was modified to contain 0.1% triton X-100 and 150 mM NaCl to reduce the amount of solubilized NS5B protein at this step. In addition, sonication of cell extracts was avoided throughout the protocol to preserve the integrity of the protein structure.
Soluble NS5B protein in the S3 fraction was diluted to lower the NaCl concentration to 300 mM, then it incubated batchwise with DEAE sepharose beads (Amersham-Pharmacia) for 2 hrs at […], as described by Behrens et al. (1989). Unbound material was cleared by centrifugation for 15 min at 4° C., at 25 000 rpm using a SW41 rotor (Beckman). The supernatant was further diluted to lower the NaCl concentration to 200 mM and subsequently loaded, with a flow rate of 1 ml/min, on a 5 ml HiTrap® heparin column (Amersham-Pharmacia) connected to an FPLC® system (Amersham-Pharmacia). Bound proteins were eluted in 1 ml fractions, using a continuous NaCl gradient of 0.2 to 1 M, over a 25 ml volume. NS5B-containing fractions were identified by sodium dodecyl sulfate polyacrylamide gel electrophoresis (SDS-PAGE), followed by western blotting using the anti-NS5B antiserum at a dilution of 1:2000. Positive fractions were pooled and the elution buffer was exchanged against a 50 mM NaPO4 pH 7.0, 20% glycerol, 0.5% triton X-100 and 10 mM DTT, using a PD-10 column (Amersham-Pharmacia). The sample was then loaded onto a 1 ml HiTrap® SP column (Amersham-Pharmacia), with a flow rate of 0.1 ml/min. Bound proteins were eluted using a continuous 0 to 1 M NaCl gradient over a 15 ml volume. Eluted fractions were analyzed by SDS-PAGE and western blotting. Alternatively, proteins were visualized, following SDS-PAGE, by silver staining using the Silver Stain Plus kit (BiORad) as described by the manufacturer.
RdRp assays were conducted using in vitro transcribed heteropolymeric RNA templates. […]

Consider “6-Chloro- 3′-deoxyguanosine- 5′triphosphate [COMPOUND#32]”, for which the IC50 was found to be 6800 nM.
Consider `Nc1ncnc2c1ncn2[C@@H]1O[C@H](COP(=O)(O)OP(=O)(O)OP(=O)(O)O)[C@@H](O)[C@H]1O` [ATP, reference compound], for which the “measured Kms for the four substrates” value was 18 µM.
In the case of `Nc1ccn([C@@H]2O[C@H](COP(=O)(O)OP(=O)(O)OP(=O)(O)O)C[C@H]2O)c(=O)n1` [COMPOUND#2, 3′-deoxycytidine-5′triphosphate], the IC50 worked out at 36 nM.
`Nc1nc(=O)n([C@@H]2O[C@H](COP(=O)(O)OP(=O)(O)OP(=O)(O)O)C[C@H]2O)cc1F` [COMPOUND#4, 5-Fluoro-3′-deoxycytidine-5′triphosphate]: the IC50 stood at 300 nM.
`O=c1ccn([C@@H]2O[C@H](COP(=O)(O)OP(=O)(O)OP(=O)(O)O)C[C@H]2O)c(=O)[nH]1` [COMPOUND#6, 3′-deoxyuridine-5′triphosphate]: the IC50 was 260 nM.
Still for that read-out and setting: the result for `O=c1[nH]c(=O)n([C@@H]2O[C@H](COP(=O)(O)OP(=O)(O)OP(=O)(O)O)C[C@H]2O)cc1F` [COMPOUND#8, 5-Fluoro-3′-deoxyuridine-5′triphosphate] reads 1980 nM; that for `Cc1cn([C@H]2CC[C@@H](COP(=O)(O)OP(=O)(O)OP(=O)(O)O)O2)c(=O)[nH]c1=O` [COMPOUND#10, 3′-deoxythymidine-5′triphosphate], 6400 nM; that for `Nc1nc2c(ncn2[C@@H]2O[C@H](COP(=O)(O)OP(=O)(O)OP(=O)(O)O)C[C@H]2O)c(=O)[nH]1` [COMPOUND#12, 3′-deoxyguanosine-5′triphosphate], 48 nM.
The same measure, in the same setting: the result for `CC(=O)Nc1nc2c(ncn2[C@@H]2O[C@H](COP(=O)(O)OP(=O)(O)OP(=O)(O)O)C[C@H]2O)c(=O)[nH]1` [COMPOUND#14, 2-N-acetyl-3′-deoxyguanosine-5′triphosphate] reads 3100 nM; that for `Cc1cn([C@@H]2O[C@H](COP(=O)(O)OP(=O)(O)OP(=O)(O)O)C[C@H]2O)c(=O)nc1N` [COMPOUND#16, 5-Methyl-3′-deoxycytidine-5′triphosphate], 360 nM.
As for `Nc1nc(=O)n([C@@H]2O[C@H](COP(=O)(O)OP(=O)(O)OP(=O)(O)O)C[C@H]2O)cc1I` [COMPOUND#18, 5-Iodo-3′-deoxycytidine-5′triphosphate], the IC50 came to 6880 nM.
For `Nc1nc(=O)n([C@@H]2O[C@H](COP(=O)(O)OP(=O)(O)OP(=O)(O)O)C[C@H]2O)cc1Cl` [COMPOUND#20, 5- = Chloro-3′-deoxycytidine-5′triphosphate], the 50% inhibitory concentration (IC50) was 180 nM.
The same measure, in the same setting: the result for `Nc1nc(O)c2ncn([C@@H]3O[C@H](COP(=O)(O)OP(=O)(O)OP(=O)(O)O)[C@@H](F)[C@H]3O)c2n1` [COMPOUND#22, 3′-fluoro-3′-deoxyguanosine-5′triphosphate] reads 120 nM; that for `Nc1ccn([C@@H]2O[C@H](COP(=O)(O)OP(=O)(O)OP(=O)(O)O)[C@@H](F)[C@H]2O)c(=O)n1` [COMPOUND#24, 3′-fluoro-3′-deoxycytidine-5′triphosphate], 55 nM.
On the same count and under the same terms, with `O=c1[nH]c(=O)n([C@@H]2O[C@H](COP(=O)(O)OP(=O)(O)OP(=O)(O)O)C[C@H]2O)cc1Cl` [COMPOUND#28, 5-Chloro-3′-deoxyuridine-5′triphosphate] the figure was 2100 nM; with `O=c1[nH]c(=O)n([C@@H]2O[C@H](COP(=O)(O)OP(=O)(O)OP(=O)(O)O)C[C@H]2O)cc1Br` [COMPOUND#30, 5-Bromo-3′-deoxyuridine-5′triphosphate], 2900 nM.
As for `[N-]=[N+]=N[C@H]1[C@@H](O)[C@H](n2ccc(N)nc2=O)O[C@@H]1COP(=O)(O)OP(=O)(O)OP(=O)(O)O` [COMPOUND#54, 3′-azido-3′-deoxycytidine 5′triphosphate], the IC50 was 9000 nM.
In the case of `Nc1nc(=O)n([C@@H]2O[C@H](COP(=O)(O)OP(=O)(O)OP(=O)(O)O)C[C@H]2O)cc1I` [COMPQUND#26, 5- = Iodp-3′-deoxycytidine-5′triphosphate], the IC50 stood at 910 nM.
With `Nc1ccn([C@@H]2O[C@H](COP(=O)(O)OP(=O)(O)OP(=O)(O)O)[C@@H](O)[C@H]2O)c(=O)n1` [CTP, reference compound], the “measured Kms for the four substrates” value was 0.5 µM.
As for `Nc1nc2c(ncn2[C@@H]2O[C@H](COP(=O)(O)OP(=O)(O)OP(=O)(O)O)[C@@H](O)[C@H]2O)c(=O)[nH]1` [GTP, reference compound], the “measured Kms for the four substrates” value was 0.5 µM.
Consider `O=c1ccn([C@@H]2O[C@H](COP(=O)(O)OP(=O)(O)OP(=O)(O)O)[C@@H](O)[C@H]2O)c(=O)[nH]1` [UTP, reference compound], for which the “measured Kms for the four substrates” value was 1.2 µM.
